# Results reported in publication PMC10787068, “Targeting the Mitochondrial Chaperone TRAP1 Alleviates Vascular Pathologies in Ischemic Retinopathy” (Advanced Science, 2023).
# Columns and labels:
# [1] = test system: 3D human corneal epithelial (HCE) model, MCTT HCE; test: Eye irritation test with MCTT HCE (OECD test guideline 492); assay type: cell-based; conditions: 3D culture MCTT HCE, TRAP1 inhibitors at 2 mM, H&E staining images, n = 5, mean ± SEM
# Procedure: (§1) An eye irritation test was performed using a 3D human corneal epithelial (HCE) model, called MCTT HCE (KeraSkin; Biosolution, Seoul, Republic of Korea), for OECD test guideline 492, following the manufacturer's instructions. In brief, HCE tissues were incubated overnight in medium provided by the supplier. Thereafter, 2 mM MitoQ, SB‐U014, and SB‐U015 were applied to the upper epithelial surface of HCE tissues and incubated for 10 min. After removing the drugs by washing the tissues with PBS, the tissues were further incubated for 16 h, and then subjected to the WST‐1 assay for viability assessment and fixed in 4% PFA for histological analysis. […]
# (§2) their cytotoxic activities were analyzed in four independent experiments by trypan blue staining. The calculated IC50 values are presented in the normal cell cytotoxicity column in Table 1. […] A 3D culture of human corneal epithelium (MCTT HCE) was incubated with 2 mM TRAP1 inhibitors and analyzed by H&E staining.
# (§3) The culture thickness (n = 5) was measured and analyzed (Table S1). […] After topical application of 2 mM MitoQ, SB-U014, or SB-U015 once daily for 6 days, the mouse cornea was harvested and analyzed by H&E staining. […]
# (§4) A 3D culture of human corneal epithelium (MCTT HCE) was incubated with 2 mM TRAP1 inhibitors, and the percentage viability was analyzed by the WST-1 assay (n = 4). Absorbance was measured with a microplate reader. […]
# [2] = as above; assay type: cell-based, human; conditions: human; 3D culture MCTT HCE, TRAP1 inhibitors at 2 mM, WST-1 assay, n = 4, mean ± SEM; read-out: Percentage viability (%)
# Procedure: as §1, §2, §3, §4
smiles,measurement,setting,value
"COC1=C(OC)C(=O)C(CCCCCCCCCC[P+](c2ccccc2)(c2ccccc2)c2ccccc2)=C(C)C1=O [MitoQ, mitoquinone]",Thickness (μm),[1],53.43 ± 2.79 μm
same,"viability at 10 min, 2 mM",[2],63.47 ± 0.23%
